# Laboratory results reported in article PMC8496750, “Identification of the organic anion transporting polypeptides responsible for the hepatic uptake of the major metabolite of epyrifenacil, S‐3100‐CA, in mice” (Pharmacology Research & Perspectives, 2021).
# Tests used:
# rat Oatp1a4 = target: T1, rat Oatp1a4 (Rattus norvegicus, UniProt O35913); experiment: Uptake assay for radiolabeled substrates, rat Oatp1a4 expressing 293FT cells; conditions: 10‐min incubation
# T1 sequence (O35913 1-661): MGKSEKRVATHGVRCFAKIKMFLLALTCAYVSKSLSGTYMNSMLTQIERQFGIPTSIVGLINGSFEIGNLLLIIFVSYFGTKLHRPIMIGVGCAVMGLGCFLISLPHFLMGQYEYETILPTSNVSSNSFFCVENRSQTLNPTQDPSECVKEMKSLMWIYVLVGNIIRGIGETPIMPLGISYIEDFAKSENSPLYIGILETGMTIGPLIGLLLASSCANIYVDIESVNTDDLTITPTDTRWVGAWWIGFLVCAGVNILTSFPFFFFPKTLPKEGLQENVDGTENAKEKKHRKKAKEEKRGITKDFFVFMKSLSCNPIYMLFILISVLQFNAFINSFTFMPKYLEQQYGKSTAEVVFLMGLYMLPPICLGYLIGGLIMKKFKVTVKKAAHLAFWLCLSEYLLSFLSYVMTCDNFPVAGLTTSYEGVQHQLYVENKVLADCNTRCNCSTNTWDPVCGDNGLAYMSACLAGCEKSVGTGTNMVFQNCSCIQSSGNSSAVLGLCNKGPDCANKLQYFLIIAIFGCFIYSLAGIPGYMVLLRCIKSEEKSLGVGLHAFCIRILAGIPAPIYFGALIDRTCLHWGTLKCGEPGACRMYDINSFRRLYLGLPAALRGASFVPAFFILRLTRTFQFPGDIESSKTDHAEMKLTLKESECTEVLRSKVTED
# Procedure: (§1) 293FT cells were purchased from Thermo Fisher Scientific, Inc.. The cells were grown in Dulbecco's modified Eagle medium (supplemented with 4.5 g/L glucose and 2 mM L‐glutamine) at 37°C, 5% CO2, and 95% humidity. The cells were passaged 3 times per week by harvesting cells using trypsin and plating at a density of 1.0 × 10^4 cells/cm^2 in a 10 cm cell culture plate for maintenance culture. The 293FT cells were detached using trypsin and re‐seeded at a density of 2.5 × 10^4 cells/cm^2 in BioCoat™ Collagen I 6‐well plates (Corning Inc.) for transfection and then treated with 1.2 μg of plasmid vector and 3.2 μl of Lipofectamine™ 2000 Transfection Reagent (Thermo Fisher Scientific, Inc.) according to the manufacturer's instructions. After a 3‐h treatment, the transfection medium was replaced with a fresh cell culture medium and incubated at 37°C with 95% humidity and 5% CO2 until ready for the assay.
# (§2) Transport experiments were conducted approximately 24 h post‐transfection. The experiments were initiated by aspirating culture medium and addition of pre‐warmed radiolabeled substrate solution (final 1.0% of acetonitrile or 0.9% of ethanol in phosphate‐buffered saline (PBS[−])) to each well. After a 10‐min incubation, cells were washed twice with 1 ml of ice‐cold PBS(−) and lysed with 700 μl of 1.0 M NaOH for 3 h or more at room temperature. The lysate was transferred to a 1.5‐ml tube, and neutralized with 350 μl of 2.0 M HCl and 350 μl of 2.0% sodium dodecyl sulfate (SDS) solution. From the lysate, 1.0 ml was transferred to a vial containing 10 ml of Emulsifier Scintillator Plus to measure the radioactivity in the LSC. The protein concentration of the cell lysate was also measured using a Pierce™ BCA Protein Assay Kit (Thermo Fisher Scientific, Inc.), which was used to normalize, according to the cell number, the radioactivity in the cell lysate extract. The protein assay was performed in duplicate. Each sample type was assayed in triplicate wells, and each run was performed twice. When the difference in mean uptake between OATP expressing cells and mock cells was more than 2 times, the OATP was judged to be involved in transportation of the substrate. […] Each sample type was assayed in triplicate wells.
# human OATP2B1 = target: T2, human OATP2B1 (Homo sapiens, UniProt O94956); experiment: Uptake assay for radiolabeled substrates, human OATP2B1 expressing 293FT cells; assay type: in vitro ADME; conditions: 10‐min incubation
# T2 construct: expressed in transfected cells; host or cells: 293FT cells
# T2 sequence (O94956 1-709): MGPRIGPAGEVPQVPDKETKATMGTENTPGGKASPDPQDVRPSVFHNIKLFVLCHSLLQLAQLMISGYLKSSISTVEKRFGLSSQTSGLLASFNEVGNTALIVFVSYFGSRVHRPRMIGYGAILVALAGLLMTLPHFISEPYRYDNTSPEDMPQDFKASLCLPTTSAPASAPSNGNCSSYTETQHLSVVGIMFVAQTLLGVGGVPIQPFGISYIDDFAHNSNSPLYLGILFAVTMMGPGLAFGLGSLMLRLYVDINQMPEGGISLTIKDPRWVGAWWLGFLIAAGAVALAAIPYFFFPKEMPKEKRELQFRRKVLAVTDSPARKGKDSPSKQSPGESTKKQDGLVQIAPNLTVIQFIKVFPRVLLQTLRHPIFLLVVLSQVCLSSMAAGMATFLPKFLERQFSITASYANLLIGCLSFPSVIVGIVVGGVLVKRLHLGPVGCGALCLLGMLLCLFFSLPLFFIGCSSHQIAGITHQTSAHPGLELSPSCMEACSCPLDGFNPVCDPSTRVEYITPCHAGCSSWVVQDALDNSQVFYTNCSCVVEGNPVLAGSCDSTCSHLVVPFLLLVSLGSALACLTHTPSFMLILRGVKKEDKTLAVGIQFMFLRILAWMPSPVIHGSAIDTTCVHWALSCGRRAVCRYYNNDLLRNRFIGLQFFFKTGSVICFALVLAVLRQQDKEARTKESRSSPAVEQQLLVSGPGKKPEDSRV
# Procedure: as §1, §2
# rat Oatp1a1 = target: T3, rat Oatp1a1 (Rattus norvegicus, UniProt P46720); experiment: Uptake assay for radiolabeled substrates, rat Oatp1a1 expressing 293FT cells; assay type: in vitro ADME; conditions: for Ratio of uptake amount relative to the uptake into mock cells: 10‐min incubation
# T3 construct: expressed in transfected cells; host or cells: 293FT cells
# T3 sequence (P46720 1-670): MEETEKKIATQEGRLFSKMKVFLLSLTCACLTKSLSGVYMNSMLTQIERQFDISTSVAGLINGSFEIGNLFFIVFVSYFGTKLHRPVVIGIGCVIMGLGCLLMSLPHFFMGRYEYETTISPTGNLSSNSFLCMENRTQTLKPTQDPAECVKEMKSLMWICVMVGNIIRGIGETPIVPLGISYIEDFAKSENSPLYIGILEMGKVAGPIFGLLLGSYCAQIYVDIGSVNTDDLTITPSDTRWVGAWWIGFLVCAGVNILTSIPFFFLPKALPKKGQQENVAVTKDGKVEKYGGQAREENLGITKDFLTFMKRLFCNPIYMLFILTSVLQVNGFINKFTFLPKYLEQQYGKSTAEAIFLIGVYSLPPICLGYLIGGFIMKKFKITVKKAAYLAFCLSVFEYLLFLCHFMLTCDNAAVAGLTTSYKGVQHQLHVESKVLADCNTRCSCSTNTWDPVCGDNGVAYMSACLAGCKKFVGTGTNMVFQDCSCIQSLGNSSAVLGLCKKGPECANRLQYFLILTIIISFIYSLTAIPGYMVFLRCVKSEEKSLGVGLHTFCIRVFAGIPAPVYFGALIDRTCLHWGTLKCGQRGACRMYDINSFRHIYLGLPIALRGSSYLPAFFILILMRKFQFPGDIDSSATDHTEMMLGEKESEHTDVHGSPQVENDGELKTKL
# Procedure: as §1, §2
SMILES,Ratio of uptake amount relative to the uptake into mock cells (rat Oatp1a4; Run_1),Ratio of uptake amount relative to the uptake into mock cells (rat Oatp1a4; Run_2),Ratio of uptake amount relative to the uptake into mock cells (human OATP2B1; Run_1),Ratio of uptake amount relative to the uptake into mock cells (human OATP2B1; Run_2),Ratio of uptake amount relative to the uptake into mock cells (rat Oatp1a1; Run_1),Ratio of uptake amount relative to the uptake into mock cells (rat Oatp1a1; Run_2),"Uptake, times higher than in mock cells (rat Oatp1a1) [times]"
"C[C@]12CC[C@@H]3c4ccc(OS(=O)(=O)O)cc4CC[C@H]3[C@@H]1CCC2=O [E3S, Estrone 3‐sulfate]",2.2,1.4,16.2,1.9,28.6,13.6,–
"C[C@]12CC[C@@H]3c4ccc(O)cc4CC[C@H]3[C@@H]1CC[C@@H]2O[C@@H]1O[C@H](C(=O)O)[C@@H](O)[C@H](O)[C@H]1O [E217βG, Estradiol 17β‐D‐glucuronide]",6.1,10.4,1.9,0.6,59.1,65.4,> 50
Cn1c(C(F)(F)F)cc(=O)n(-c2cc(Oc3cccnc3OCC(=O)O)c(Cl)cc2F)c1=O [S‐3100‐CA],5.0,4.1,2.6,1.9,11.7,8.7,–
